Measurements reported in ChEMBL document CHEMBL1201862, “PubChem BioAssay data set” (2004).
Activity calls are given as the source filed them.

How the values were obtained:
Cytochrome P450 2C19 = Cytochrome P450 2C19 (Homo sapiens, UniProt P33261); assay: Cytochrome panel assay with activity outcomes. Panel member name: p450-cyp2c19 Compounds with AC50 equal or less than 10 uM are considered active; format: functional
[1] = cytotoxicity toward NIH3T3 fibroblasts, dose response, counter-screen, cell-based, ATP luminescence, mouse fibroblasts (AID 2010); format: functional;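 also: cells exposed to compound for about 90 hours before reading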
[2] = inhibitors of intracellular T. cruzi replication, confirmation, NIH3T3 host cells, beta-gal luminescence (AID 2044); format: functional, cell-based;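 also: intracellular parasites grown in NIH/3T3 mouse fibroblasts as host cells; luminescent beta-galactosidase reporter signal from transgenic T. cruzi replicating inside host cells; inhibitors lower the luminescence signal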
Cytochrome P450 1A2 = molecular target: T1, Cytochrome P450 1A2 (Homo sapiens, UniProt P05177);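 also: PubChem cytochrome P450 panel assay, CYP1A2 panel member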
T1 sequence (P05177 whole entry): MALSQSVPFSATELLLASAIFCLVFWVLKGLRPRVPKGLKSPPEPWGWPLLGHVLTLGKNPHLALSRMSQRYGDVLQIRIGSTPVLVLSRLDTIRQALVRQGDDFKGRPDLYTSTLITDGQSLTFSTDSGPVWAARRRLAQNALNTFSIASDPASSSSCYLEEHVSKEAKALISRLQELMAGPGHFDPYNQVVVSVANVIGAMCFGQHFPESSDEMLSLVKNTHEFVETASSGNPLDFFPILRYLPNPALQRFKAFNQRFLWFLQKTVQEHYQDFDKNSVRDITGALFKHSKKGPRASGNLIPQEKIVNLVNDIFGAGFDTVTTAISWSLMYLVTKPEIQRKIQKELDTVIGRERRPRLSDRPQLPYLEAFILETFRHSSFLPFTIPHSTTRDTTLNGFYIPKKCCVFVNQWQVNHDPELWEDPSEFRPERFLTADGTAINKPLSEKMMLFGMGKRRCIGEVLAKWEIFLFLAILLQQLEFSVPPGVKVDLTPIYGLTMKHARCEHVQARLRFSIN

[3] = inhibitors of firefly luciferase expression or activity, dose response, H4 neuroglioma cells, luminescence (AID 1990); format: functional, cell-based
[4] = inhibitors of SNCA 5'UTR-driven reporter translation, confirmation, H4 neuroglioma cells, luminescence (AID 1988); format: functional, cell-based
[5] = Luminescence Cell-Based Dose Response HTS to Identify Inhibitors of 5'UTR Stem-Loop Driven Prion Protein mRNA Translation in H4 Neuroglioblastoma Cells. [Related pubchem assays: 1827 (Project Summary), 1813 (Primary HTS)]; format: functional
Cytochrome P450 2D6 = Cytochrome P450 2D6 (Homo sapiens, UniProt P10635);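 also: CYP2D6 member of a cytochrome P450 panel assay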
Streptococcus = assay: Group A Streptococcus viability loss, dose response, counter-screen for streptokinase expression inhibitor project, luminescence, BacTiterGlo (AID 1915); format: functional, organism-based;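 also: potency for reduction of bacterial viability or growth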
[6] = system: Streptococcus sp. 'group A'; assay: growth inhibition of control SK(-) GAS strain, dose response, counter-screen for streptokinase expression inhibitor project, luminescence, kanamycin, BacTiterGlo, confirmation (AID 1900); format: functional, organism-based

Chain of Cytochrome P450 2C19 (P33261 whole entry): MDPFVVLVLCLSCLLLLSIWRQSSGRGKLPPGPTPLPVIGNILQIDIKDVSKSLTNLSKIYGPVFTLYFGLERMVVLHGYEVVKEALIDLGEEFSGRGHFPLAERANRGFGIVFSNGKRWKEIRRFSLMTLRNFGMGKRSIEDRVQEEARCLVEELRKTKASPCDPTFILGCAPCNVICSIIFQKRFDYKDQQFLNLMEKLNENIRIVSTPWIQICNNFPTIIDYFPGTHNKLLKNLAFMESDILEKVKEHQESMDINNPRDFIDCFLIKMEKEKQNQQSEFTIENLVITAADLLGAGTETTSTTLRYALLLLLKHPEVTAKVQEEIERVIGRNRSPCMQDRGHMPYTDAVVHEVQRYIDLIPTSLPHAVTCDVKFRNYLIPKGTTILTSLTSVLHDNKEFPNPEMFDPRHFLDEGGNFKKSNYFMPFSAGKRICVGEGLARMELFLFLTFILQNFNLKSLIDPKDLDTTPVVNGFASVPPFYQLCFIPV
Chain of Cytochrome P450 2D6 (P10635 whole entry): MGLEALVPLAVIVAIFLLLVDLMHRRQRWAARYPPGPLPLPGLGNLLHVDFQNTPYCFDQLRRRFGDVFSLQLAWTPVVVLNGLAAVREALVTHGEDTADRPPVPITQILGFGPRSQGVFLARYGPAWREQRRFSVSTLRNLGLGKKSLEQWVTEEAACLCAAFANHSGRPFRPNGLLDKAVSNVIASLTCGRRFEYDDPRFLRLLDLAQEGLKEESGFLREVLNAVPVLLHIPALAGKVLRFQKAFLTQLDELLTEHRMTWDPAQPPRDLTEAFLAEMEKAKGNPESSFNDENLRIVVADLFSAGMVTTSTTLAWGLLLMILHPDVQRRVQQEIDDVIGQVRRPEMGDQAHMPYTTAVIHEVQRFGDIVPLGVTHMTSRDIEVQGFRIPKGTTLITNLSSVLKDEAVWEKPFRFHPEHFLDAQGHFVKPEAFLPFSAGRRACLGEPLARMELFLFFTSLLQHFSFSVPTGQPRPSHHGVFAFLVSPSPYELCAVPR

## COc1ccc(CNc2ncnc3ccc(-c4cccnc4)cc23)c(OC)c1
Cytochrome P450 2C19; read-out: AC50
  AC50: 31.6 µM (inconclusive)

## OCC1(CCCc2ccccc2)CCN(Cc2cnc(N3CCOCC3)s2)CC1
[1]
  EC50: > 60 µM (not active)
[2]
  EC50: 1.2 µM (active)

## CCCCN(C)CCCNC(=O)c1ccc(N2CCCC2=O)cc1
Cytochrome P450 1A2
  AC50: 0.126 µM (inconclusive)

## COc1ccc(-c2nnc(CSc3nnc(-c4ccncc4)n3C3CCCCC3)o2)cc1OC
[3]
  EC50: 16.3 µM (active)
[4]
  EC50: 39.4 µM (active)
[5]
  EC50: > 120 µM (not active)

## CN(C)C(=O)c1ccc(-c2nc(N(C)Cc3ccco3)c3ccccc3n2)cc1
Cytochrome P450 2C19; read-out: AC50
  AC50: 31.6 µM (inconclusive)
Cytochrome P450 2D6
  AC50: 39.8 µM (inconclusive)

## NC(=O)c1cccc(N)c1 [3-AMINOBENZAMIDE]
Cytochrome P450 1A2
  AC50: 39.8 µM (inconclusive)
Cytochrome P450 2D6
  AC50: 20 µM (inconclusive)

## CCOC(=O)c1[nH]c(Cc2[nH]c(C(=O)OCC)c(C)c2CCC(=O)OC)c(CCC(=O)OC)c1C
[3]
  EC50: > 120 µM (not active)
[4]
  EC50: 12.1 µM (active)
[5]
  EC50: 21.2 µM (active)

## O=C(NC(Cc1c[nH]c2ccccc12)c1nnc2n1CCCCC2)c1ccccc1 (stereo unspecified)
Cytochrome P450 2C19; read-out: AC50
  AC50: 17.8 µM (inconclusive)

## O=C(Cn1cc(C(F)(F)F)ccc1=O)N/N=C/c1cccc(Cl)c1Cl
[3]
  EC50: > 120 µM (not active)
[4]
  EC50: > 120 µM (not active)
[5]
  EC50: > 120 µM (not active)

## CC(C)c1cc(CN(C)C)c(O)c(C(C)(C)C)c1
Cytochrome P450 2D6
  AC50: 6.31 µM (inconclusive)

## COc1ccccc1C(=O)C1CCCN(Cc2ccc(Oc3ncccn3)cc2)C1 (stereo unspecified)
[1]
  EC50: > 60 µM (not active)
[2]
  EC50: 0.178 µM (active)

## CCCCSc1nnc(-c2ccc(C)cc2)n1C
Cytochrome P450 1A2
  AC50: 28.2 µM (inconclusive)

## Cc1oc(-c2ccccc2F)nc1CS(=O)(=O)CC(=O)NCCCN(C)C1CCCCC1
Cytochrome P450 2D6
  AC50: 15.8 µM (inconclusive)

## COc1ccc(NC(=O)CC2C(=O)N(CCc3ccccc3)C(=S)N2Cc2cccnc2)cc1 (stereo unspecified)
[1]
  EC50: > 60 µM (inconclusive)
[2]
  EC50: 2.03 µM (active)

## CCN1CCN(c2nc(-c3ccncc3)nc3ccccc23)CC1
[1]
  EC50: > 60 µM (not active)
[2]
  EC50: 1.23 µM (active)

## COc1cc(O)nc(SCc2c(F)c(F)c(F)c(F)c2F)n1
[3]
  EC50: > 120 µM (not active)
[4]
  EC50: 66.4 µM (active)
[5]
  EC50: 13.9 µM (active)

## Cc1ccccc1Cn1cnc2c(cnn2C(C)(C)C)c1=O
Cytochrome P450 2D6
  AC50: 35.5 µM (inconclusive)

## C[C@H](N)c1cccc(Cl)c1Cl
Cytochrome P450 2D6
  AC50: 31.6 µM (inconclusive)

## O=C(CSc1ncnc2c1nnn2Cc1ccc(F)cc1)NC1CCCCC1
[1]
  EC50: > 60 µM (not active)
[2]
  EC50: 4.08 µM (active)

## CCOC(=O)c1c(NC(=O)CN2CCCCC2)sc(CN(C)C)c1-c1ccccc1
[1]
  EC50: > 30 µM (not active)
[2]
  EC50: 1.11 µM (active)

## O=C(NNC(=S)NC(=O)c1cccc([N+](=O)[O-])c1)c1ccc(Br)cc1
Streptococcus
  EC50: 6.56 µM (active)
[6]
  EC50: 1.14 µM (active)

## OC[C@@H]1O[C@H](n2cnc3c(/C=C(\O)c4ccccc4)ncnc32)[C@H](O)[C@@H]1O
Cytochrome P450 1A2
  AC50: 0.501 µM (inconclusive)

## COc1ccc(CC(=O)NCCN2CCCC2)cc1
Cytochrome P450 2D6
  AC50: 28.2 µM (inconclusive)

## O=C(Nc1ccccc1)N(Cc1ccccc1)CC(O)C(F)(F)F (stereo unspecified)
Cytochrome P450 1A2
  AC50: 17.8 µM (inconclusive)

## N=c1c2c(-c3ccccc3)c(-c3ccccc3)n(Cc3ccco3)c2ncn1CCCO
[1]
  EC50: 11.3 µM (active)
[2]
  EC50: 1.33 µM (active)

## O=C(Nc1nc2c(F)cc(F)cc2s1)C1CC1
[1]
  EC50: > 60 µM (not active)
[2]
  EC50: 0.305 µM (active)

## CCOc1ccccc1NC(=O)c1cc(-c2ccncc2)nc2c(Cl)cccc12
[1]
  EC50: 21.2 µM (active)
[2]
  EC50: 1.97 µM (active)

## CCc1nnc(NC(=O)CCC(=O)NCc2ccccc2OC)s1
Cytochrome P450 2D6
  AC50: 17.8 µM (inconclusive)

## O=C(CN1C2=NCCCN2c2ccccc21)c1ccc([N+](=O)[O-])cc1
[1]
  EC50: > 60 µM (not active)
[2]
  EC50: 0.436 µM (active)

## N#CC(C#N)=CNCCN1CCN(C=C(C#N)C#N)CC1
Cytochrome P450 2C19
  AC50: inconclusive

## CO[C@@H]1COC(=O)[C@H]2CCCN2C(=O)[C@@H](C)COC(=O)CCC[C@H]1C
Cytochrome P450 2C19
  AC50: inconclusive

## O=C(NCC1CCCO1)/C(=C\c1ccco1)NC(=O)c1ccccc1 (stereo unspecified)
Cytochrome P450 1A2
  AC50: 14.1 µM (inconclusive)

## O=C(N/N=C/c1cc2c(cc1Br)OCO2)c1c[nH]c2ccccc12
[1]
  EC50: > 60 µM (inconclusive)
[2]
  EC50: 2.52 µM (active)

## Oc1c[n+](CCCC[n+]2cc(O)on2)no1
Cytochrome P450 2C19
  AC50: inconclusive

## CCC(=O)Nc1nc2ccc([N+](=O)[O-])cc2s1
[1]
  EC50: > 60 µM (not active)
[2]
  EC50: 0.241 µM (active)

## Cn1c(=O)c2nc(CSCc3ccccc3)[nH]c2n(C)c1=O
Cytochrome P450 2C19
  AC50: inconclusive

## Cc1cc(C)c(S(=O)(=O)Nc2ccccc2C(F)(F)F)c(C)c1
Cytochrome P450 1A2
  AC50: 31.6 µM (inconclusive)

## CC(C)CN(C(=O)COC(=O)c1c(Cl)ccc(Cl)c1Cl)C1CCS(=O)(=O)C1 (stereo unspecified)
[3]
  EC50: > 120 µM (not active)
[4]
  EC50: > 120 µM (not active)
[5]
  EC50: > 120 µM (not active)

## CSc1cccc(NC(=S)N(Cc2ccc(C)cc2)Cc2ccccn2)c1
[1]
  EC50: > 60 µM (not active)
[2]
  EC50: 0.483 µM (active)

## CC(C)n1c2ccccc2c2cc([N+](=O)[O-])ccc21
[3]
  EC50: 14.8 µM (active)
[4]
  EC50: 34.3 µM (active)
[5]
  EC50: > 120 µM (not active)

## Cc1cc(C)c(S(=O)(=O)c2ccccc2C)c(Cl)n1
[1]
  EC50: > 60 µM (not active)
[2]
  EC50: 2.05 µM (active)

## O=C(NC1CCCCCC1)c1cccs1
Cytochrome P450 2C19; read-out: AC50
  AC50: 3.98 µM (inconclusive)
Cytochrome P450 2D6
  AC50: 12.6 µM (inconclusive)

## COc1ccccc1NS(=O)(=O)c1cccc(C(=O)N/N=C/c2cn(-c3ccccc3)nc2-c2ccccc2)c1
[3]
  EC50: > 120 µM (not active)
[4]
  EC50: > 120 µM (not active)
[5]
  EC50: > 120 µM (not active)

## CN(C(=O)CSc1nc(O)c(C#N)c(-c2ccc(C(C)(C)C)cc2)n1)C1CCCCC1
Streptococcus
  EC50: 20.3 µM (active)

## O=C(O)COc1ccccc1/C=N/NC(=O)c1cc2ccccc2cc1O
[3]
  EC50: > 120 µM (not active)
[4]
  EC50: 18.7 µM (active)
[5]
  EC50: > 120 µM (not active)

## Cc1cc(C)c[n+](CC(=O)c2cc3ccccc3oc2=O)c1
Cytochrome P450 1A2
  AC50: 22.4 µM (inconclusive)
Cytochrome P450 2D6
  AC50: 11.2 µM (inconclusive)

## O=C(Nc1ccc([N+](=O)[O-])cc1)C(Cc1ccccc1)N1C(=O)c2cccc3cccc(c23)C1=O (stereo unspecified)
[3]
  EC50: > 120 µM (not active)
[4]
  EC50: > 120 µM (not active)
[5]
  EC50: > 120 µM (not active)

## O=c1cnc2cnc(OCc3ccccc3)nc2n1Cc1ccc(F)cc1
Cytochrome P450 2C19; read-out: AC50
  AC50: 25.1 µM (inconclusive)
Cytochrome P450 2D6
  AC50: 39.8 µM (inconclusive)

## COc1cccc(Cn2c(=O)c(C)nc3cnc(OCc4ccccc4)nc32)c1
Cytochrome P450 2D6
  AC50: 20 µM (inconclusive)

## CN(C)c1ccc(-c2ccc3ncnc(N(C)Cc4ccco4)c3c2)cc1
Cytochrome P450 2D6
  AC50: 25.1 µM (inconclusive)

## CN(Cc1ccco1)c1ccnc(-c2ccccc2C(F)(F)F)n1
Cytochrome P450 2D6
  AC50: 25.1 µM (inconclusive)

## O=C(c1c[nH]c(C(=O)N2CCN(c3ccccc3F)CC2)c1)c1cccc(Cl)c1Cl
[1]
  EC50: 2.1 µM (active)
[2]
  EC50: 2.69 µM (active)

## COc1ccc(C)cc1NC(=O)CSc1nnc(-c2ccc(OC)c(OC)c2)n1N
Cytochrome P450 1A2
  AC50: 11.2 µM (inconclusive)
Cytochrome P450 2C19; read-out: AC50
  AC50: 28.2 µM (inconclusive)

## O=C(NC1CCN(Cc2ccccc2)CC1)c1cc(Br)c(Br)[nH]1
[3]
  EC50: > 120 µM (not active)
[1]
  EC50: > 60 µM (not active)
[4]
  EC50: > 120 µM (not active)
[5]
  EC50: > 120 µM (not active)
[2]
  EC50: 0.539 µM (active)

## Cc1ccc(-n2ncc3c2ncn2nc(-c4ccco4)nc32)c(C)c1
Cytochrome P450 2C19; read-out: AC50
  AC50: 17.8 µM (inconclusive)

## Cc1sc2ncn(CC(=O)NCCCC(=O)N3CCN(c4ncccn4)CC3)c(=O)c2c1C
Cytochrome P450 2C19; read-out: AC50
  AC50: 25.1 µM (inconclusive)

## Cc1nc(SCC(=O)Nc2c(C)nn(C)c2C)c2cnn(-c3ccccc3)c2n1
Cytochrome P450 2C19; read-out: AC50
  AC50: 28.2 µM (inconclusive)
